Measured values from patent US11840535B2, “Alkynyl(hetero)aromatic compound for inhibiting protein kinase activity” (Shenzhen TargetRx, Inc., priority 2018, dated 2023).

What was measured:
Ba/F3 parental cells = assay: Cell proliferation analysis, Ba/F3 parental; format: cell-based; conditions: Mus musculus, BaF3, 72 h; 8 ng/ml IL-3, 3 days, CellTiter-Glo
Procedure: (§1) The inhibitory effect of the example compounds on Ba/F3, Ba/F3 Bcr-Abl T315I cell activity was determined.
(§2) Materials and reagents: RPMI-1640 medium (GIBCO, Catalog No. A10491-01), fetal bovine serum (GIBCO, Catalog No. 10099141), antibiotics (Penicillin-Streptomycin), IL-3 (PeproTech), promycin; cell lines: Ba/F3, Ba/F3 Bcr-Abl T315I (Purchased from American type culture collection, ATCC), live cell detection kit […] (Promega, Catalog No. G7572), 96-well black wall transparent flat bottom cell culture plate (Corning, Catalog No. 3340).
(§3) Test method: 1. Preparation of cell plate: Ba/F3, Ba/F3 Bcr-Abl T315I cells were respectively seeded in 96-well plates, and 8 ng/ml IL-3 was added to the Ba/F3 cells, and the cell plates were placed in a carbon dioxide incubator and cultured overnight. 2. The test compounds were dissolved in DMSO, 9 compound concentrations were made with a 3.16-fold gradient dilution in triplicate. 3. Treatment of the cells with compounds: The compounds were transferred to the cell plate with a starting concentration of 10 μM. The cell plate was placed in a carbon dioxide incubator for 3 days. 4. Detection: CellTiter-Glo agent was added to the cell plate, and incubated at room temperature for 30 minutes to stabilize the luminous signal. PerkinElmer Envision multi-label analyzer was used for reading, wherein A represents […], B represents IC50 is 10-20 nM, C represents IC50 is 20-50 nM, D represents IC50 is 50-1000 nM, E represents IC50>1000 nM.

[1] = tested on: Ba/F3 Bcr-Abl T315I cells; assay: Cell proliferation analysis, Ba/F3 Bcr-Abl T315I; format: cell-based; conditions: for IC50: Mus musculus, BaF3, 72 h, 3 days, CellTiter-Glo; for Selectivity [Ba/F3 (parental/Bcr-Abl ^T315I)]: ratio of Ba/F3 parental to Ba/F3 Bcr-Abl T315I
Procedure: as §1, §2, §3

ABL = ABL (Homo sapiens (Human), UniProt P00519); assay: Biochemical kinase analysis, ABL
Procedure: (§4) Reagents and materials: ABL (ThermoFisher, Cat. No PV3585), ABL^T315I (Thermo Fisher, Cat. No. PR7429B), ATP (Sigma, Cat. No. A7699-1G), DMSO (Sigma, Cat. No. D2650), 96-well plate (Corning, Cat. No. 3365), 384-well plate (Greiner, Cat. No. 784076), buffer solution (Thermo Fisher, Cat. No. PR4876B).
(§5) Compound formulation: The test compounds were dissolved in DMSO to prepare a 20 mM stock solution. Before use, the compounds were diluted in DMSO to 0.1 mM, and diluted into 11 concentrations with a 3-fold gradient. When addition, diluentions of 4-fold final concentration were then made with buffer solution.
(§6) Kinase assay method: After preparing the buffer, the enzyme was mixed with pre-formulated and diluted compounds of different concentrations in duplicate for each concentration, and placed at room temperature for 30 minutes. The corresponding substrate and ATP were added thereto, and reacted at room temperature for 60 minutes (both a negative and a positive control were set). After the reaction, antibody was added for detection, Envision detection was carried out after 60 minutes incubation at room temperature, and data was collected. Data analysis and fitting were made according to XLfit5 software, wherein, A represents IC50≤5 nM, B represents IC50 is 5-50 nM, C represents IC50 is 50-100 nM, D represents IC50>100 nM.

ABL^T315I = ABL^T315I (Homo sapiens (Human), UniProt P00519, T315I); assay: Biochemical kinase analysis, ABL T315I
Procedure: as §4, §5, §6

Compound | IC50 (Ba/F3 parental cells) [nM] | IC50 [1] [nM] | Selectivity [Ba/F3 (parental/Bcr-Abl ^T315I)] [1] | IC50 (ABL) [nM] | IC50 (ABL^T315I) [nM]
Cc1ccc(C(=O)Nc2cccc(C(F)(F)F)c2)cc1C#Cc1cn(C(C)C)c2ncnc(N)c12 [Example 13, 3-((4-amino-7-isopropyl-7H-pyrrolo[2,3-d]pyrimidin-5-yl)ethynyl)-4-methyl-N-(3-(trifluoromethyl)phenyl)benzamide] | > 1000 | 20 to 50 | 100~150 | 5 to 50 | 5 to 50
CCn1cc(C#Cc2cc(C(=O)Nc3cccc(C(F)(F)F)n3)ccc2C)c2c(N)ncnc21 [Example 7, 3-((4-amino-7-ethyl-7H-pyrrolo[2,3-d]pyrimidin-5-yl)ethynyl)-4-methyl-N-(6-(trifluoromethyl)pyridin-2-yl)benzamide] | – | – | – | ≤ 5 | 5 to 50
Cc1cn(-c2cc(NC(=O)c3ccc(C)c(C#Cc4cn(C)c5ncnc(N)c45)c3)cc(C(F)(F)F)c2)cn1 [Example 11, 3-((4-amino-7-methyl-7H-pyrrolo[2,3-d]pyrimidin-5-yl)ethynyl)-4-methyl-N-(3-(4-methyl-1H-imidazol-1-yl)-5-(trifluoromethyl)phenyl)benzamide] | > 1000 | 10 to 20 | >500 | ≤ 5 | 5 to 50
Cc1ccc(C(=O)Nc2cccc(C(F)(F)F)c2)cc1C#Cc1cn(C)c2ncnc(N)c12 [Example 14, 3-((4-amino-7-methyl-7H-pyrrolo[2,3-d]pyrimidin-5-yl)ethynyl)-4-methyl-N-(3-(trifluoromethyl)phenyl)benzamide] | > 1000 | 20 to 50 | 50~100 | ≤ 5 | ≤ 5
Cc1ccc(C(=O)Nc2cccc(C(F)(F)F)c2)cc1C#Cc1cn([C@H]2CC[C@H](O)CC2)c2ncnc(N)c12 [Example 23, 3-((4-amino-7-((1r,4r)-4-hydroxycyclohexyl)-7H-pyrrolo[2,3-d]pyrimidin-5-yl)ethynyl)-4-methyl-N-(3-(trifluoromethyl)phenyl)benzamide] | – | – | – | ≤ 5 | 5 to 50
CCc1nc(C#Cc2cc(C(=O)Nc3ccc(CN4CCN(C)CC4)c(C(F)(F)F)c3)ccc2C)c2c(N)nccn12 [Example 1, 3-((8-amino-3-ethylimidazo[1,5-a]pyrazin-1-yl)ethynyl)-4-methyl-N-(4-((4-methylpiperazin-1-yl)methyl)-3-(trifluoromethyl)phenyl)benzamide] | > 1000 | 20 to 50 | 50~100 | ≤ 5 | ≤ 5
CCc1nc(C#Cc2cc(C(=O)Nc3cccc(C(F)(F)F)c3)ccc2C)c2c(N)nccn12 [Example 2, 3-((8-amino-3-ethylimidazo[1,5-a]pyrazin-1-yl)ethynyl)-4-methyl-N-(3-(trifluoromethyl)phenyl)benzamide] | – | – | – | 5 to 50 | 50 to 100
Cc1ccc(NC(=O)c2ccc(CN3CCN(C)CC3)c(C(F)(F)F)c2)cc1C#Cc1cn(C)c2ncnc(N)c12 [Example 19, N-(3-((4-amino-7-methyl-7H-pyrrolo[2,3-d]pyrimidin-5-yl)ethynyl)-4-methylphenyl)-4-((4-methylpiperazin-1-yl)methyl)-3-(trifluoromethyl)benzamide] | > 1000 | ≤ 10 | 150~500 | ≤ 5 | ≤ 5
Cc1ccc(C(=O)Nc2ccc(CN3CCN(C)CC3)c(C(F)(F)F)c2)cc1C#Cc1nc(C(C)C)n2ccnc(N)c12 [Example 4, 3-((8-amino-3-isopropylimidazo[1,5-a]pyrazin-1-yl)ethynyl)-4-methyl-N-(4-((4-methylpiperazin-1-yl)methyl)-3-(trifluoromethyl)phenyl)benzamide] | > 1000 | 50 to 1000 | 0~50 | ≤ 5 | ≤ 5
Cc1ccc(C(=O)Nc2ccc(C)c(C(F)(F)F)c2)cc1C#Cc1cn([C@H]2CC[C@H](O)CC2)c2ncnc(N)c12 [Example 24, 3-((4-amino-7-((1r,4r)-4-hydroxycyclohexyl)-7H-pyrrolo[2,3-d]pyrimidin-5-yl)ethynyl)-4-methyl-N-(4-methyl-3-(trifluoromethyl)phenyl)benzamide] | > 1000 | 10 to 20 | 150~500 | ≤ 5 | 5 to 50
CCn1cc(C#Cc2cccc(C(=O)Nc3cccc(C(F)(F)F)c3)c2)c2c(N)ncnc21 [Example 8, 3-((4-amino-7-ethyl-7H-pyrrolo[2,3-d]pyrimidin-5-yl)ethynyl)-N-(3-(trifluoromethyl)phenyl)benzamide] | – | – | – | ≤ 5 | ≤ 5
Cc1ccc(C(=O)Nc2ccc(CN3CCN(C)CC3)c(C(F)(F)F)c2)cc1C#Cc1nc(C)n2ccnc(N)c12 [Example 3, 3-((8-amino-3-methylimidazo[1,5-a]pyrazin-1-yl)ethynyl)-4-methyl-N-(4-((4-methylpiperazin-1-yl)methyl)-3-(trifluoromethyl)phenyl)benzamide] | – | – | – | ≤ 5 | ≤ 5
CCn1cc(C#Cc2cc(C(=O)Nc3ccc(CN(C)C)c(C(F)(F)F)c3)ccc2C)c2c(N)ncnc21 [Example 9, 3-((4-amino-7-ethyl-7H-pyrrolo[2,3-d]pyrimidin-5-yl)ethynyl)-N-(4-((dimethylamino)methyl)-3-(trifluoromethyl)phenyl)-4-methylbenzamide] | > 1000 | 10 to 20 | 150~500 | ≤ 5 | ≤ 5
Cc1ccc(C(=O)Nc2ccc(CN3CCN(C)CC3)c(C(F)(F)F)c2)cc1C#Cc1cn(C)c2ncnc(N)c12 [Example 16, 3-((4-amino-7-methyl-7H-pyrrolo[2,3-d]pyrimidin-5-yl)ethynyl)-4-methyl-N-(4-((4-methylpiperazin-1-yl)methyl)-3-(trifluoromethyl)phenyl)benzamide] | > 1000 | ≤ 10 | 150~500 | ≤ 5 | ≤ 5
CCn1cc(C#Cc2cc(NC(=O)c3cc(-n4cnc(C)c4)cc(C(F)(F)F)c3)ccc2C)c2c(N)ncnc21 [Example 21, N-(3-((4-amino-7-ethyl-7H-pyrrolo[2,3-d]pyrimidin-5-yl)ethynyl)-4-methylphenyl)-3-(4-methyl-1H-imidazol-1-yl)-5-(trifluoromethyl)benzamide] | 50 to 1000 | ≤ 10 | 50~100 | ≤ 5 | 5 to 50
Cc1ccc(NC(=O)c2ccc(C)c(C(F)(F)F)c2)cc1C#Cc1cn(C2CCCC2)c2ncnc(N)c12 [Example 20, N-(3-((4-amino-7-cyclopentyl-7H-pyrrolo[2,3-d]pyrimidin-5-yl)ethynyl)-4-methylphenyl)-4-methyl-3-(trifluoromethyl)benzamide] | – | – | – | 5 to 50 | 50 to 100
CCn1cc(C#Cc2cc(C(=O)Nc3cc(-n4cnc(C)c4)cc(C(F)(F)F)c3)ccc2C)c2c(N)ncnc21 [Example 10, 3-((4-amino-7-ethyl-7H-pyrrolo[2,3-d]pyrimidin-5-yl)ethynyl)-4-methyl-N-(3-(4-methyl-1H-imidazol-1-yl)-5-(trifluoromethyl)phenyl)benzamide] | > 1000 | 10 to 20 | 150~500 | 5 to 50 | 5 to 50
